Reference: ChEMBL document CHEMBL4024705 (Bioorg Med Chem Lett, 2017)

How the values were obtained:
Liver [1] = experiment: Stability of the compound in rat liver microsomes assessed as compound remaining; format: ADME, microsome
Liver [2] = experiment: Stability of the compound in human liver microsomes assessed as compound remaining; format: ADME, microsome
Liver [3] = experiment: Stability of the compound in mouse liver microsomes assessed as compound remaining; format: ADME, microsome
[4] = Permeability of the compound by PAMPA; format: physicochemical; settings: read-out: permeability

SMILES | Stability (Liver [1]) [%] | Stability (Liver [2]) [%] | Stability (Liver [3]) [%] | Papp [4] [×10⁻⁶ cm/s]
C[C@H]1CN(c2cc(-c3cc(Cl)c4c(N)ncnn34)ccc2C#N)C(=O)C(C)(C)O1 | 0 | 18 | 0 | 
[2H]C1([2H])OC(C)(C)C(=O)N(c2cc(-c3cc(Cl)c4c(N)ncnn34)ccc2C#N)C1([2H])[2H] | 76 | 94 | 58 | 
[2H]C1([2H])OC(C)(C)C(=O)N(c2cc(-c3cc(C(F)(F)F)c4c(N)ncnn34)ccc2C#N)C1([2H])[2H] | 75 | 91 | 74 | 
CC[C@H]1COC(C)(C)C(=O)N1c1cc(-c2cc(Cl)c3c(N)ncnn23)ccc1C#N | 4 | 53 | 1 | 
[2H]C([2H])([2H])C1([2H])N(c2cc(-c3cc(Cl)c4c(N)ncnn34)ccc2C#N)C(=O)C(C)(C)OC1([2H])[2H] (centres undefined) | 34 to 37 | 83 to 87 | 0 to 28 | 
C[C@@H]1CN(c2cc(-c3cc(Cl)c4c(N)ncnn34)ccc2C#N)C(=O)C(C)(C)O1 | 5 | 61 | 43 | 

The next lines start with the values.

Stability (Liver [1]) [%] | Stability (Liver [2]) [%] | Stability (Liver [3]) [%] | Papp [4] [×10⁻⁶ cm/s] | SMILES
2 | 50 | 4 | 65.9 | C[C@H]1OC(C)(C)C(=O)N(c2cc(-c3cc(C(F)(F)F)c4c(N)ncnn34)ccc2C#N)[C@H]1C
1 | 23 | 1 |  | C[C@H]1COC(C)(C)C(=O)N1c1cc(-c2cc(C(F)(F)F)c3c(N)ncnn23)ccc1C#N
32 to 44 | 77 to 91 | 0 to 18 |  | [2H]C([2H])([2H])C1([2H])N(c2cc(-c3cc(C(F)(F)F)c4c(N)ncnn34)ccc2C#N)C(=O)C(C)(C)OC1([2H])[2H] (centres undefined)
25 | 92 | 28 |  | C[C@@H]1COC(C)(C)C(=O)N1c1cc(-c2cc(Cl)c3c(N)ncnn23)ccc1C#N
29 | 85 | 24 |  | C[C@H]1CN(c2cc(-c3cc(C(F)(F)F)c4c(N)ncnn34)ccc2C#N)C(=O)C(C)(C)O1
